Here are results for four molecules from patent US20080255206A1, “Rxr Agonists and Antagonists, Alone or in Combination with Ppar Ligands, in the Treatment of Metabolic and Cardiovascular Diseases” (priority 2005, published 2008).

What is called IC50 is the point on the concentration scale where inhibition reaches its midpoint. As usually defined, the EC50 is the midpoint of the concentration-response curve.

Experiment [1] has as its target T1, RARα (Homo sapiens, UniProt P10276).
T1 sequence (P10276 183-417 limits assumed): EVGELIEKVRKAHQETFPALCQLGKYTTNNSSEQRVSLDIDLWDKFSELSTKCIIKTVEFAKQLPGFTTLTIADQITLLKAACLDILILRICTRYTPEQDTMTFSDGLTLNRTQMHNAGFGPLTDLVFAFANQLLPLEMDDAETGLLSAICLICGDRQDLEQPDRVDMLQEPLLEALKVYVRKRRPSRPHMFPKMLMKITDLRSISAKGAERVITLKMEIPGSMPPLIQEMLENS
The experiment in a line: Retinoid binding assay, RARα. Conditions: read-out: Binding Affinity IC50 RAR α. On the set-up: The DEF domains of RAR's and the full length RXR's, expressed in E.coli; made in house; host or cells: E. coli. The source says:
(§1) The DEF domains of RAR's and the full length RXR's, expressed in E.coli, are used to measure competitive retinoid binding. […] 9-cis retinoic acid (for RXR's), respectively. […] Separation of bound from free radioactivity is achieved by charcoal/dextran (RAR's) or by desalting columns (RXR's). […] Retinoid Activation Assays

For experiment [2], the target named is T2, RXRβ (Homo sapiens, UniProt P28702).
T2 construct: Full length RXR cDNA is used for transfection; expressed in transfected cells; host or cells: Schneider SL-3 cells (Drosophila)
T2 sequence (P28702 1-533): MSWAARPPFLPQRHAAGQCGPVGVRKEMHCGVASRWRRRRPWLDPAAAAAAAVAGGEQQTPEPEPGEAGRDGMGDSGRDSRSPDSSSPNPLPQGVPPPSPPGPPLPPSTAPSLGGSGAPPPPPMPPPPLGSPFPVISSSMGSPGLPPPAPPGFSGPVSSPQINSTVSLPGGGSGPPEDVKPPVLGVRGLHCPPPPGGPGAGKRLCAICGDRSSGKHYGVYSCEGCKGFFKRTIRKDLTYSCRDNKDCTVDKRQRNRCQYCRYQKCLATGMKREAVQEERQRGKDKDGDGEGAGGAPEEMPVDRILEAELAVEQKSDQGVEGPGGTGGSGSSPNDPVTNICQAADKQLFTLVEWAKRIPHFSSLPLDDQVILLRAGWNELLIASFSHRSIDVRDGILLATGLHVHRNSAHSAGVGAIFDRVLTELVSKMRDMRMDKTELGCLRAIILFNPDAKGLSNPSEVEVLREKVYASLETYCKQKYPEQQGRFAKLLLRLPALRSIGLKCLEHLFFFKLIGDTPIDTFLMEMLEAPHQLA
The experiment in a line: Retinoid activation assay, RXRβ (Schneider SL-3 cells, luciferase reporter). The class given is cell-based. Conditions: read-out: Activation EC50 RXR β. As to the method:
(§2) Full length RXR cDNA is used for transfection. As reporter system, the luciferase gene is used in a construct with three copies of a RXR response element from rat CRBP gene, (formerly RARE from betaRAR gene), fused to alcoholdehydrogenase gene promoter in the plasmid pGL2-basic. Schneider SL-3 cells from Drosophila are transiently transfected 3-4 h before the experiment by the Ca-phosphate-DNA coprecipitation method. […] At the end of the incubation, the cell supernatants are assayed for luciferase activity. Results are given as EC50 (nM), the concentration leading to half-maximal activation.
A general note: In a reporter assay the amount or activity of a reporter protein is the signal.

Experiment [3] has as its target T3, RARβ (Homo sapiens, UniProt P10826).
T3 sequence (P10826 183-417 limits assumed): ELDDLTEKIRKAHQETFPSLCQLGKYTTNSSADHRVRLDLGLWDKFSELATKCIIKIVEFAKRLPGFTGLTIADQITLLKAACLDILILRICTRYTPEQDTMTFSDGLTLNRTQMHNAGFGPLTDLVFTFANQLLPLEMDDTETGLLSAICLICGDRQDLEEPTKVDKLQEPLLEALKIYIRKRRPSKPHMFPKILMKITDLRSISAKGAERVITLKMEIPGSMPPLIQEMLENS
The experiment in a line: Retinoid binding assay, RARβ. Conditions: read-out: Binding Affinity IC50 RAR β. Also noted: The DEF domains of RAR's and the full length RXR's, expressed in E.coli; made in house; host or cells: E. coli.
Source text: as §1

Experiment [4] has as its target T4, RXRγ (Homo sapiens, UniProt P48443).
T4 sequence (P48443 1-463): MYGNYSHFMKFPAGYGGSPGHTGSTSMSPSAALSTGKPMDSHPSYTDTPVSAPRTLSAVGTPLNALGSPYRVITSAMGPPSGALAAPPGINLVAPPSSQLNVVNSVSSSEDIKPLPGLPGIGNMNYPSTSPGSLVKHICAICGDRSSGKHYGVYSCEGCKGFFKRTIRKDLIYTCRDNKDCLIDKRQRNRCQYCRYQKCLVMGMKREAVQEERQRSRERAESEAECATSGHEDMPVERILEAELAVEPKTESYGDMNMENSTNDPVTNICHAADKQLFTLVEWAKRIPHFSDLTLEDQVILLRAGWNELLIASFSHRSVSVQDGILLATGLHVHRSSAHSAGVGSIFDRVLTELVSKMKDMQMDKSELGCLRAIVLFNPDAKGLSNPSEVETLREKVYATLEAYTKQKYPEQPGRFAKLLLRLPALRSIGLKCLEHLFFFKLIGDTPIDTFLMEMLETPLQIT
Nature of the experiment: Retinoid binding assay, RXRγ. On the set-up: made in house; host or cells: E. coli. Conditions: [3H] 9-cis retinoic acid 20 nM; read-out: Binding Affinity IC50 RXR γ.
Source text: as §1

The target in experiment [5] is T4, RXRγ. The experiment in a line: Retinoid activation assay, RXRγ (Schneider SL-3 cells, luciferase reporter). The class given is cell-based. The note with it: read-out: Activation EC50 RXR γ. The procedure:
as §2

For experiment [6], the target named is T5, RARγ (Homo sapiens, UniProt P13631).
T5 construct: The DEF domains of RAR's and the full length RXR's, expressed in E.coli; made in house; host or cells: E. coli
T5 sequence (P13631 185-419 limits assumed): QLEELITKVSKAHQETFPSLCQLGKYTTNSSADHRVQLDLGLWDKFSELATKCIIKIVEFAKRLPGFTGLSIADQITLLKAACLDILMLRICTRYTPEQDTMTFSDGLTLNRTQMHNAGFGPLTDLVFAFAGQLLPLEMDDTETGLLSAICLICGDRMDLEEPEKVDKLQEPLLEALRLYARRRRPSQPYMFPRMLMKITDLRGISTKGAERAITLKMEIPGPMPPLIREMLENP
The experiment in a line: Retinoid binding assay, RARγ. Conditions: read-out: Binding Affinity IC50 RAR γ.
Source text: as §1

For experiment [7], the target named is T6, RXRα Homodimer (Homo sapiens, UniProt P19793).
T6 construct: expressed in transfected cells; host or cells: mammalian cells (BHK21, CV1, etc)
T6 sequence (P19793 1-462): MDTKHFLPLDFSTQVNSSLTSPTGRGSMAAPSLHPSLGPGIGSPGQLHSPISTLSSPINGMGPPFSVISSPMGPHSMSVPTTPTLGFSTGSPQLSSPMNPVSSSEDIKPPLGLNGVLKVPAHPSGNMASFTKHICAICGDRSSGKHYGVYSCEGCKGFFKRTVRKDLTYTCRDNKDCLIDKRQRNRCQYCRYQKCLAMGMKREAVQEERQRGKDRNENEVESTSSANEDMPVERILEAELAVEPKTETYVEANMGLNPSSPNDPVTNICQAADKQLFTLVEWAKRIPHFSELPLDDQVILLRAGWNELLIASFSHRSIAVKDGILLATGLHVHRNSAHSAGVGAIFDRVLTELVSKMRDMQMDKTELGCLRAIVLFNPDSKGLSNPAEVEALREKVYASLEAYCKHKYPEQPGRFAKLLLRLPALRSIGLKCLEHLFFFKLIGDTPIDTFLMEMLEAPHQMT
Nature of the experiment: RXRα homodimer activation (transactivation) assay. The class given is cell-based. The source says:
(§3) Nuclear hormone receptor (NHR) ligand dependent transcriptional transactivation assay.
This secondary in vitro functional assay to characterize hits from the primary ligand binding screens is a GAL4-LBD transactivation assay. The Gal4-LBD protein consists of an in frame fusion of the transcription factor galactose 4 DNA binding domain from S.cerevisiae with the ligand binding domain (LBD) of a particular NHR. Briefly, a plasmid construct expressing the recombinant chimeric receptor is co-transfected into mammalian cells (BHK21, CV1, etc) with a luciferase reporter plasmid containing several copies in tandem of the GAL4 binding sites (promoter recognition elements) upstream from the minimal promoter driving the luciferase gene. The transfected cells are treated with compounds for 12-24 hours, lysates are produced and assayed for luciferase activity and normalized to internal standards such as GH, growth hormone or SEAP, secreted alkaline phosphatase. Ligand binding stabilizes the LBD conformation that recruits endogenous co-factors that mediate eventually the increased transcriptional activity of the luciferase reporter gene. By comparing the activation profile of a reference ligand or a natural ligand, the EC50 values for agonistic activity of a particular ligand can be measured. The extent of activation that can be measured is indicative of a partial, respectively full agonistic activity of a ligand. […]

Experiment [8] has as its target T7, PPARγ/RXRα Heterodimer (Homo sapiens, UniProt P19793).
T7 construct: co-transfected with plasmids expressing the full length RXR heteropartner receptor; expressed in transfected cells
T7 sequence (P19793 1-462): T6 sequence (P19793 1-462)
T7 sequence (P37231 1-505 partner): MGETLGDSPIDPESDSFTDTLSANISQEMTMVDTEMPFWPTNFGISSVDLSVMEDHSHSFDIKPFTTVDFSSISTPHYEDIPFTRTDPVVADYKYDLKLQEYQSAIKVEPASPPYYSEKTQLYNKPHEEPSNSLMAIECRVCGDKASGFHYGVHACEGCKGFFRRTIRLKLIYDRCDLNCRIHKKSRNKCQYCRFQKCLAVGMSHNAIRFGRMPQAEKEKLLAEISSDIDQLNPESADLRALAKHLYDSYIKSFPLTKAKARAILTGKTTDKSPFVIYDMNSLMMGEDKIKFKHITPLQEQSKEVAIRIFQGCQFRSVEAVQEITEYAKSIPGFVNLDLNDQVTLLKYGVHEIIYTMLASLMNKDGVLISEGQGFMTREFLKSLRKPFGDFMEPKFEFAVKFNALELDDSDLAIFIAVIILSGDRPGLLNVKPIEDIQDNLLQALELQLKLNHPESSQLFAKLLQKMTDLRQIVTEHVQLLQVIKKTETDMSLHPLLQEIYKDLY
The experiment in a line: PPARγ/RXRα heterodimer activation (transactivation) assay. The class given is cell-based.
Source text: as §3
Heterodimer reporter assays are potentially more important selection criteria for synthetic agonistic NHR ligands as they embody a more natural situation. Basically plasmids expressing the recombinant full length NHR are co-transfected with plasmids expressing the full length RXR heteropartner receptor and a reporter plasmid containing several copies of the natural responsive elements for the respective NHR driving the luciferase reporter gene.

In experiment [9] the target is T8, RXRα (Homo sapiens, UniProt P19793).
T8 sequence (P19793 1-462): T6 sequence (P19793 1-462)
The experiment in a line: Retinoid binding assay, RXRα. On the set-up: made in house; host or cells: E. coli. Conditions: [3H] 9-cis retinoic acid 20 nM; read-out: Binding Affinity IC50 RXR α.
Source text: as §1

In experiment [10] the target is T8, RXRα. Nature of the experiment: Retinoid activation assay, RXRα (Schneider SL-3 cells, luciferase reporter). The note with it: read-out: Activation EC50 RXR α. The experiment is classed as cell-based. As to the method: as §2

Take `CCCOc1cc2c(cc1\C(C)=C/C=C/C(C)=C/C(=O)O)C(C)(C)CCC2(C)C` [Compound 23, (2E,4E,6Z)-3-Methyl-7-(5,5,8,8-tetramethyl-3-propoxy-5,6,7,8-tetrahydro-naphthalen-2-yl)-octa-2,4,6-trienoic acid]: the IC50 in [1] came to 3.1 µM; in experiment [3], 3.5 µM; in experiment [4] it was 0.068 µM; in experiment [6], 2.8 µM. Further, the EC50 in [2] and in [5] was greater than 10 µM throughout.

As for `CCCOc1cc2c(cc1[C@@H]1C[C@@H]1/C=C/C(C)=C/C(=O)O)C(C)(C)CCC2(C)C` (racemic) [Compound 22, (2E,4E)-3-Methyl-5-[(1RS,2RS)-2-(5,5,8,8-tetramethyl-3-propoxy-5,6,7,8-tetrahydro-naphthalen-2-yl)-cyclopropyl]-penta-2,4-dienoic acid], the EC50 in experiment [7] was greater than 10 µM; in experiment [8] it was greater than 0.03 µM; in experiment [2] it was greater than 10 µM; in [5], greater than 10 µM; in experiment [10] it was greater than 10 µM. Further, the figures for the IC50 in [9] and in experiment [4] were 0.3 µM and 0.7 µM, respectively.

`CC(/C=C/[C@@H]1C[C@@H]1c1ccc2c(c1)C(C)(C)CCC2(C)C)=C\C(=O)O` (stereo in doubt) [Compound 10, (2E,4E)-3-Methyl-5-[(1S,2S)-2-(5,5,8,8-tetramethyl-5,6,7,8-tetrahydro-naphthalen-2-yl)-cyclopropyl]-penta-2,4-dienoic acid]: the EC50 in [7] was 0.0026 µM; in experiment [8], 0.006 µM; in experiment [2] it was 0.028 µM; in [5], 0.065 µM; in [10], 0.0026 µM. The results for the half-inhibitory concentration (IC50) in experiment [9] and in experiment [4] were 0.11 µM and 0.122 µM, respectively.

Take `CCc1cc2c(cc1\C(C)=C/C=C/C(C)=C/C(=O)O)CCCC2C` (racemic) [Compound 11, (2E,4E,6Z)-(RS)-7-(3-Ethyl-5-methyl-5,6,7,8-tetrahydro-naphthalen-2-yl)-3-methyl-octa-2,4,6-trienoic acid]: the EC50 in [7] stood at 0.002 µM; in experiment [8] it was 0.01 µM; in [2] it was 0.017 µM; in experiment [5], 0.037 µM; in experiment [10], 0.0021 µM. Besides, the figures for the IC50 in [9] and in experiment [4] were 0.065 µM and 0.056 µM, respectively.
